Data reported in patent publication US20150232954A1, “Method for quantifying different viral forms of the DNA of the HIV virus” (UNIVERSITE PARIS DIDEROT - PARIS 7, priority 2012, published 2015).

Columns and labels:
maturation reaction = test: Confirmation of the effect on maturation with a radiolabeled probe derived from the PCR; assay type: cell-based, HIV-1; conditions: 5 μM inhibitor
From the text: The different effects of each of the inhibitors on the maturation reaction were confirmed with the aid of a radiolabeled probe derived from the PCR.

[1] = system: maturation reaction (3′-processing); test: Effect of INSTI on the maturation reaction (3′-processing) in infected cells (Example 4); assay type: cell-based, HIV-1; conditions: for effect on the maturation step: 500 nM inhibitor; for maturation efficacy: 2.5 μM inhibitor
From the text: Quantification of 3′ non-mature and mature linear forms of the DNA of HIV-1 by LM-PCR. The strategy used in order to quantify the linear viral DNA is based on the ligation of a linking oligonucleotide (or “linker”) at the ends of the viral ends followed by two PCRs according to the protocol of Pierson et al. (Pierson et al. (2002) Journal of Virology 17:8518-8531). Major improvements have been made in order to implement an approach of quantitative PCR type.

recombinant integrase = target: T1, recombinant integrase (Human immunodeficiency virus type 1 group M subtype B, UniProt P12497); test: In vitro maturation reaction with recombinant integrase; assay type: biochemical, HIV-1
T1 construct: with the aid of recombinant integrase

viral integration = test: Inhibition of viral integration by INSTI (Example 4); assay type: cell-based, HIV-1; conditions: for IC50: Human immunodeficiency virus 1, read-out: IC50 for inhibition of viral integration
[2] = system: 2-LTR or 1-LTR bands of HIV-1 viral DNA; test: Accumulation of 2-LTR and 1-LTR bands with INSTI (Example 4); assay type: cell-based; conditions: for 2 LTR bands as share of the viral forms: 500 nM to 5 μM, 48 h post-infection; for accumulation of 2-LTR or 1-LTR bands on varying the concentration: from 500 nM to 5 μM
Description: Quantification of the 1-LTR bands. The quantifications were carried out by real-time PCR on a Light Cycler apparatus (Roche Diagnostics, Meylan, France) with the aid of the second derivative method provided with the Light Cycler quantification software, version 3.5 (Roche Diagnostics). The number of DNA copies of the 1-LTR bands was determined by quantifying the viral molecules with the aid of primers which hybridize to the genes gag and env, as well as to hybridization probes. The reaction mixtures contain 1× LightCycler FastStart DNA master HybProbes buffer (Roche Diagnostics reference 12239272001), 4 mM MgCl2, 300 nM of 1-LTR LA1 primers (5′-[…]-3′, SEQ ID NO: 1) and 1-LTR LA16 (5′-[…]-3′, SEQ ID NO: 2) and 200 nM of LTR FL* hybridization probes (5′-[…]^a-3′, SEQ ID NO: 3) and LTR LC*(5′-[…]^b-3′, SEQ ID NO: 4) (^aFluorescein at the 3′ end; ^bLC red 640 at the 5′ end and phosphorylated at the 3′ end) in a final volume of 20 μl. The conditions of the PCR cycles for the quantification of the 1-LTR bands are the following: denaturation step for 8 min followed by 40 cycles (95° C. for 10 s, 60° C. for 10 s, and 72° C. for 25 s). The number of copies of 1-LTR bands was determined by reference to a calibration curve prepared by amplifying quantities ranging from 100 to 10^5 copies of p1-LTR.
(§1) The bands at 2-LTR are amplified by the primers flanking the LTR-LTR junction (HIVF and HIVR1 primers) (Brussel & Sonigo (2003) Journal of Virology 77:10119-10124). The viral DNA integrated is quantified by Alu-PCR (Brussel & Sonigo (2003) Journal of Virology 77:10119-10124). The U5-gag sequences, the 2-LTR junctions as well as the specific amplification of the integrated DNA are amplified in duplicate starting from 1/50 of the extraction of cell DNA. The number of copies is normalized per μg of DNA by measuring the quantity of β-globin gene in 1/50 of the DNA extract (Table 1).

[3] = system: maturation reaction in primary CD4+ T lymphocytes infected with Δenv virus of wild-type; test: Efficacy of maturation during infection of primary CD4+ T lymphocytes; assay type: cell-based, HIV-1; conditions: 5 μM inhibitor
From the text: In addition, the accumulation kinetics of the 1-LTR and 2-LTR bands are similar in the primary cells with respect to cells of cellular line.

[4] = system: maturation (3′-processing) of the linear viral DNA of HIV-1 in CEM cells; test: Quantification of mature and non-mature linear viral DNA by LM-PCR after infection of CEM cells; assay type: cell-based
[5] = system: integration of HIV-1 viral DNA in infected cells; test: Quantification of integrated viral DNA by Alu-PCR in infected cells; assay type: cell-based; conditions: WT virus, 500 nM raltegravir, FIG. 3D
From the text: as §1

SMILES: C[C@@H]1CCO[C@H]2Cn3cc(C(=O)NCc4ccc(F)cc4F)c(=O)c(O)c3C(=O)N12 [DTG, dolutegravir]
- effect on maturation (maturation reaction): significantly inhibit maturation
- effect on the maturation step [1]: not affected
- maturation efficacy [1]: approximately 40%
- IC50 (recombinant integrase): 2000 nM
- lowest concentration completely inhibiting viral integration (viral integration): 500 nM
- IC50 (viral integration): 2 nM
- 2 LTR bands as share of the viral forms [2]: ~40%
- accumulation of 2-LTR or 1-LTR bands on varying the concentration [2]: does not lead to an increase
- efficacy of the maturation reaction influenced or not [3]: influenced

SMILES: COc1cc2c(cc1Cc1cccc(Cl)c1F)c(=O)c(C(=O)O)cn2[C@H](CO)C(C)C [EVG, elvitegravir]
- effect on maturation (maturation reaction): significantly inhibit maturation
- effect on the maturation step [1]: not affected
- maturation efficacy [1]: approximately 40%
- lowest concentration completely inhibiting viral integration (viral integration): 500 nM
- IC50 (viral integration): 2 nM
- 2 LTR bands as share of the viral forms [2]: ~40%
- accumulation of 2-LTR or 1-LTR bands on varying the concentration [2]: does not lead to an increase
- efficacy of the maturation reaction influenced or not [3]: influenced

SMILES: COc1cc(/C=C/c2ccc3ccc(C(=O)O)c(O)c3n2)cc(O)c1O [FZ41]
- percentage of mature viral DNA ([4]; wild-type integrase virus, 20 μM FZ41 at the time of infection, 20 hours post-infection (75% without compound)): 28%

SMILES: Cc1nnc(C(=O)NC(C)(C)c2nc(C(=O)NCc3ccc(F)cc3)c(O)c(=O)n2C)o1 [RAL, raltegravir]
- quantity of linear viral DNA (mature and non-mature), compared with WT ([4]; 500 nM raltegravir, achieved 8 hours post-infection): the same
- quantity of mature viral DNA with or without raltegravir ([4]; WT virus, 500 nM raltegravir): similar
- effect on the maturation step [1]: not affected
- maturation activity / maturation efficacy ([1]; 5 μM inhibitor): 80%
- lowest concentration completely inhibiting viral integration (viral integration): 500 nM
- IC50 (viral integration): 8 nM
- detection of integrated viral DNA [5]: inhibition of the detection of integrated viral DNA
- efficacy of the maturation reaction influenced or not [3]: not
